Where two headings read alike, the source gives them in different places.
Tests used:
human FGFR4 = target: T1, human FGFR4 (Homo sapiens, UniProt P22455); assay: FGFR4 enzymatic assay (HTRF KinEASE-TK); type: biochemical; conditions: wild-type human FGFR4 cytoplasmic domain (460-802), GST-tag; 60 min preincubation at 25° C.; ATP 200 μM; read-out: Potency (IC50), FGFR4 enzymatic assay
T1 construct: human FGFR4 cytoplasmic domain (460-802); GST (N); purchased Carna Biosciences 08-136
Protocol: The ability of compounds to inhibit human FGFR4 tyrosine kinase activities was determined using a commercially available HTRF® KinEASE™-TK kit (CISBIO, Cat #62TK0PEC) according to the manufacturer's protocol. Wild-type human FGFR4 cytoplasmic domain (460-802) with N-terminal GST-tag was purchased from Carna Biosciences (Carna, Cat #08-136) and used in the kinase enzymatic assay. This assay, run in a 384-well plate format, is a generic method for measuring tyrosine kinase activities using one substrate and a universal detection system. It involves two steps: (1) Enzymatic step: the biotin labeled TK Substrate is incubated with the kinase and then ATP is added to start the enzymatic reaction; during this step, FGFR4 will phosphorylate the TK Substrate-biotin. (2) Detection step: The TK-Antibody labeled with Eu^3+-Cryptate can recognize the phosphorylated TK Substrate-biotin. When the streptavidin-XL665 conjugate binds the biotin, a FRET signal will be detected. Briefly, human FGFR4 (0.25 μg/ml) in the enzymatic buffer solutions (250 mM HEPES, pH7.0, 0.1% NaN3, 0.05% BSA, 0.5 mM Orthovanadate) were mixed with various concentrations of the test compound (dissolved in 100% DMSO). These solutions were incubated for 60 min at 25° C., and subsequently a mixture of substrate peptide and ATP was added with the final peptide and ATP concentrations at 0.3 μM and 200 μM respectively. The final reaction mixture of enzyme-substrate-ATP-compound was incubated for 40 min at 37° C. Meanwhile the detection mixture containing the TK-antibody and Streptavidin-XL665 diluted in the detection buffer (50 mM HEPES, pH7.0, with additives) was prepared, and added to the reaction mixture at final concentrations of 25 nM and 18.5 nM respectively. After incubation for 60 min at 25° C., the FRET signal of the final solution was measured at 665 nm and 612 nm emissions on a TECAN Spark 10M instrument (TECAN). The percent (%) inhibition at each concentration of a compound was calculated relative to the FRET signal in the Max and Min control wells contained within each assay plate. The Max control wells contained enzyme and substrate as 0% inhibition, and the Min control wells only contained substrate without enzyme as 100% inhibition. The concentrations and percent inhibition values for a test compound are plotted and the concentration of the compound required to achieve 50% inhibition (IC50) was determined with a four-parameter logistic dose response equation. Dose-response curves were generated using Prism (GraphPad Software, La Jolla, CA, US) to calculate IC50 values for each compound tested.

Hep3B cells = assay: Cell-based FGFR4 proliferation assay (CellTiter-Glo); conditions: incubated with test compound for 3 days, CellTiter-Glo luminescence, read-out: Potency (IC50), Hep3B cell proliferation
Protocol: Hepatocellular carcinoma cell line Hep3B (ATCC, Cat #HB-8064) were cultured at 37° C., 5% CO2 in ATCC-formulated Eagle's Minimum Essential Medium supplemented with 10% fetal bovine serum; 1% Penicillin-Streptomycin.
(§1) Cell line: Hepatocellular carcinoma cell line Hep3B (ATCC, Cat #HB-8064).
In this assay, Hep3B cells are seeded in 384-well microplates, and after exposure to experimental compounds for […], CellTiter-Glo® Luminescent Cell Viability Assay kit (Promega, Cat #G7572) are used to determine the number of viable cells in the culture based on quantitation of the ATP present, which signals the presence of metabolically active cells. Luminescent signal is proportional to the amount of ATP present. The amount of ATP is directly proportional to the number of cells present in the culture, allowing drug-induced effects on cell proliferation to be measured.
Hep3B cells were plated at a density of 4×10^4/ml cells in a 384-well black/clear microplate with 20 μL per well of MEM Medium (Gibco Cat. #11095-080) supplemented with 10% fetal bovine serum; 1% Penicillin-Streptomycin, and cultured overnight at 37° C., 5% CO2. Various concentrations of the test compound (dissolved in 100% DMSO) were added to the wells of the cell plate. The cells were incubated with the test compound for 3 days at 37° C., 5% CO2. 5 μL of CellTiter-Glo® Reagent was added to each well of the cell plate. The cell plate was incubated for 5 min at 25° C. on a plate shaker (IKA MTS 2/4) at 300 rpm. Luminescence signals were read on a TECAN Spark 10M instrument (TECAN). […] The concentrations and percent inhibition values for a test compound were plotted and the concentration of the compound required to achieve 50% inhibition (IC50) is determined with a four-parameter logistic dose response equation. Dose-response curves were generated using Prism (GraphPad Software, La Jolla, CA, US) to calculate IC50 values for each compound tested.

[1] = test system: MAPK phosphorylation in Hep3B cells stimulated with FGF19; assay: FGFR4 pMAPK AlphaLISA SureFire Ultra assay; type: cell-based; conditions: serum-starved, compound 1 hour, FGF19 100 ng/ml for 4 hours, read-out: Potency (IC50), FGFR4 pMAPK AlphaLISA
From the text: as §1
In normal liver, circulating FGF19 drives liver cell proliferation and regulates bile acid production. However aberrant expression of FGF19 in the liver drives HCC tumorigenesis, upregulates MAPK phosphorylation in FGF19-amplified malignant liver cells. AlphaScreen SureFire technology allows the detection of phosphorylated proteins in cellular lysates in a highly sensitive, quantitative assay. In these assays, sandwich antibody complexes, which are only formed in the presence of analyte, are captured by AlphaScreen Donor and Acceptor beads, bringing them into close proximity. The excitation of the Donor bead provokes the release of singlet oxygen molecules that triggers a cascade of energy transfer in the Acceptor beads, resulting in the emission of light at 520-620 nm.
Hep3B cells were plated at a density of 1×10^4/ml cells in a 96-well plate (Corning #3599), with 100 uL per well of MEM Medium (Gibco Cat #11095-080) supplemented with 10% fetal bovine serum; 1% Penicillin-Streptomycin, and cultured overnight at 37° C., 5% CO2. Starve Hep3B cells in serum-free medium (SFM) supplemented with 0.2% BSA and incubate the cells again overnight at 37° C., 5% CO2. Various concentrations of the test compound (prepared in 2x SFM) were added to the wells of the cell plate and then incubated for 1 hour at 37° C., 5% CO2. 50 μL of FGF19 in SFM was added to each well of the cell plate with a final FGF19 concentration of 100 ng/ml, and cells treated with FGF19 were stimulated for 4 hours at 37° C., 5% CO2. 5 μL of freshly prepared Donor Mix and Acceptor Mix were sequentially added to the cell plate, each followed with 1 hour of incubation at 25° C., 5% CO2. Read the cell plate on an Alpha Technology-compatible plate reader at 570 nm AlphaScreen, using standard AlphaLISA settings. The percent (%) inhibition=((ZPE−Alpha-Signal)/(ZPE−HPE))*100% where the meanings of HPE and ZPE are as provided below.
HPE: Hundred Percent Effect, negative control well without FGF19 nor compound. Final concentration of DMSO is 0.1%.
ZPE: Zero Percent Effect, positive control well without compound. Final concentration of FGF19 is 100 ng/mL, DMSO is 0.1%.
The concentrations and percent inhibition values for a test compound were plotted and the concentration of the compound required to achieve 50% inhibition (IC50) was determined with a four-parameter logistic dose response equation. Dose-response curves were generated using Prism (GraphPad Software, La Jolla, CA, US) to calculate IC50 values for each compound tested.

T1 sequence (P22455 460-802): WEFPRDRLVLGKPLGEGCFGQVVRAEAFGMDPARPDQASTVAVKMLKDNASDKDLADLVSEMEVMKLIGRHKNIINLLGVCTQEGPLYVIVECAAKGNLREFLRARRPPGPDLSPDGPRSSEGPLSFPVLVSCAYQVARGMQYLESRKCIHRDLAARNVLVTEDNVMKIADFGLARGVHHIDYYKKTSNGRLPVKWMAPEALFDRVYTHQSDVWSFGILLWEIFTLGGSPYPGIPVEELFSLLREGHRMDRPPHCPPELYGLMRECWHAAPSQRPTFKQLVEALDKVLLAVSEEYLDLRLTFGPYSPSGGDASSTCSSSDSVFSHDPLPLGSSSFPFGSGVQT

Row | SMILES | IC50 (human FGFR4) [nM] | IC50 (Hep3B cells) [nM] | IC50 [1] [nM] | IC50 (Hep3B cells; Homo sapiens, Hep3B, 72 h) [nM] | IC50 ([1]; Homo sapiens, Hep3B) [nM]
1 | [2H]C([2H])([2H])Oc1cc(OC([2H])([2H])[2H])c(F)c(C2CCc3c(-c4c(NC(=O)C=C)cnn4C)n[nH]c3C2)c1F (single isomer, unassigned) [Compound S8-P2, N-(5-(6-(2,6-difluoro-3,5-bis(methoxy-d3)phenyl)-4,5,6,7-tetrahydro-1H-indazol-3-yl)-1-methyl-1H-pyrazol-4-yl) acrylamide] | < 10 | 10 to 100 | < 10 | – | –
2 | [2H]C([2H])([2H])Oc1cc(OC([2H])([2H])[2H])c(F)c(C2CCc3c(-c4c(NC(=O)C=C)cnn4C)n[nH]c3C2)c1 (single isomer, unassigned) [Compound S8-P3, N-(5-(6-(2-fluoro-3,5-bis(methoxy-d3)phenyl)-4,5,6,7-tetrahydro-1H-indazol-3-yl)-1-methyl-1H-pyrazol-4-yl) acrylamide] | 10 to 100 | – | – | > 100 | 10 to 100
3 | [2H]C([2H])([2H])Oc1cc(OC([2H])([2H])[2H])c(F)c(C2CCc3c(-c4c(NC(=O)C=C)cnn4C)n[nH]c3C2)c1 (single isomer, unassigned) [Compound S8-P4, N-(5-(6-(2-fluoro-3,5-bis(methoxy-d3)phenyl)-4,5,6,7-tetrahydro-1H-indazol-3-yl)-1-methyl-1H-pyrazol-4-yl) acrylamide] | 10 to 100 | > 100 | 10 to 100 | – | –
4 | C=CC(=O)Nc1cn[nH]c1-c1n[nH]c2c1CCCC(c1cc(OC)cc(OC)c1F)C2 (single isomer, unassigned) [Compound S11-P3, N-(5-(7-(2-fluoro-3,5-dimethoxyphenyl)-1,4,5,6,7,8-hexahydrocyclohepta[c]pyrazol-3-yl)-1H-pyrazol-4-yl)acrylamide] | < 10 | – | – | 10 to 100 | < 10
5 | C=CC(=O)Nc1cn[nH]c1-c1n[nH]c2c1CCCC(c1cc(OC)cc(OC)c1F)C2 (single isomer, unassigned) [Compound S11-P4, N-(5-(7-(2-fluoro-3,5-dimethoxyphenyl)-1,4,5,6,7,8-hexahydrocyclohepta[c]pyrazol-3-yl)-1H-pyrazol-4-yl)acrylamide] | < 10 | < 10 | < 10 | – | –
6 | C=CC(=O)Nc1cn(C)nc1-c1n[nH]c2c1CCC[C@H](c1c(F)c(OC)cc(OC)c1F)C2 (single isomer, unassigned) [Compound S12-P1] | < 10 | – | – | 10 to 100 | < 10
7 | C=CC(=O)Nc1cn(C)nc1-c1n[nH]c2c1CCCC(c1cc(OC)cc(OC)c1F)C2 (single isomer, unassigned) [Compound S12-P3, N-(3-(7-(2-fluoro-3,5-dimethoxyphenyl)-1,4,5,6,7,8-hexahydrocyclohepta[c]pyrazol-3-yl)-1-methyl-1H-pyrazol-4-yl) acrylamide] | 10 to 100 | – | – | 10 to 100 | < 10
8 | C=CC(=O)Nc1cn(C)nc1-c1n[nH]c2c1CCCC(c1cc(OC)cc(OC)c1F)C2 (single isomer, unassigned) [Compound S12-P4, N-(3-(7-(2-fluoro-3,5-dimethoxyphenyl)-1,4,5,6,7,8-hexahydrocyclohepta[c]pyrazol-3-yl)-1-methyl-1H-pyrazol-4-yl) acrylamide] | < 10 | < 10 | < 10 | – | –
9 | C=CC(=O)Nc1c[nH]nc1-c1n[nH]c2c1CCC(c1c(F)c(OC)cc(OC)c1F)C2 (single isomer, unassigned) [Compound S15-P1, N-(3-(6-(2,6-difluoro-3,5-dimethoxyphenyl)-4,5,6,7-tetrahydro-1H-indazol-3-yl)-1H-pyrazol-4-yl)acrylamide] | < 10 | – | – | < 10 | < 10
10 | C=CC(=O)Nc1c[nH]nc1-c1n[nH]c2c1CCC(c1cc(OC)cc(OC)c1F)C2 (single isomer, unassigned) [Compound S15-P3, N-(3-(6-(2-fluoro-3,5-dimethoxyphenyl)-4,5,6,7-tetrahydro-1H-indazol-3-yl)-1H-pyrazol-4-yl)acrylamide] | 10 to 100 | – | – | 10 to 100 | < 10
11 | C=CC(=O)Nc1c[nH]nc1-c1n[nH]c2c1CCC(c1cc(OC)cc(OC)c1F)C2 (single isomer, unassigned) [Compound S15-P4, N-(3-(6-(2-fluoro-3,5-dimethoxyphenyl)-4,5,6,7-tetrahydro-1H-indazol-3-yl)-1H-pyrazol-4-yl)acrylamide] | 10 to 100 | 10 to 100 | < 10 | – | –
12 | [2H]C([2H])([2H])n1ncc(NC(=O)C=C)c1-c1n[nH]c2c1CCC(c1c(F)c(OC)cc(OC)c1F)C2 (single isomer, unassigned) [Compound S16-P1, N-(5-(6-(2,6-difluoro-3,5-dimethoxyphenyl)-4,5,6,7-tetrahydro-1H-indazol-3-yl)-1-(methyl-d3)-1H-pyrazol-4-yl)acrylamide] | < 10 | – | – | 10 to 100 | < 10
